{"source": "paper PMC3742671", "about": "“Structure, Antimicrobial Activities and Mode of Interaction with Membranes of Bovel Phylloseptins from the Painted-Belly Leaf Frog, Phyllomedusa sauvagii” (PLoS ONE, 2013)", "key": {"S. aureus ST1065 [1]": {"system": "S. aureus ST1065", "experiment": "Permeabilization of the cytoplasmic membrane (ONPG hydrolysis)", "format": "cell-based", "settings": "ONP production at 405 nm from ONPG; compared with 10 µM dermaseptin B2 as positive control", "protocol": "(§1) PLS-induced permeabilization of the cytoplasmic plasma membranes of E. coli ML-35p and S. aureus ST1065 was measured by the rate of production of o-nitrophenol (ONP) at 405 nm, following hydrolysis of o-nitrophenyl β-D-galactopyranoside (ONPG) by β-galactosidase. Dermaseptin B2 (10 µM) and PBS were used as positive and negative controls, respectively.\n(§2) PLS-induced permeabilization of the cytoplasmic membranes of S. aureus ST1065 and E. coli ML-35p was analyzed by incubating the bacteria, which express β-galactosidase constitutively, with different concentrations of the peptides (S. aureus ST1065: PLS-S1, -S2, and -S4; E. coli ML-35p: PLS-S2 and -S4) and measuring the time-dependent hydrolysis of the small chromogenic substrate o-nitrophenyl-β-D-galactopyranoside (ONPG) into o-nitrophenol (ONP) by cytoplasmic β-galactosidase (Fig. 5). The three peptides permeabilized the bacterial cytoplasmic membrane with increasing severity according to the time and the peptide concentration. […] To investigate the mechanism of permeabilization, E. coli ML-35p were incubated with PLS-S2 (30 and 100 µM) and PLS-S4 (25 and 100 µM) for 60 min and β-galactosidase activity was measured after removing bacteria by centrifugation and adding ONPG to the supernatant.\n(§3) Figure 5 Kinetics of the cytoplasmic membrane leakage of E. coli ML-35p and S. aureus ST1065 after incubation with different concentrations of active phylloseptins-S. The membrane leakage was determined by measuring the production of o-nitrophenol at 405 nm following hydrolysis of ONPG by the cytoplasmic bacterial β-galactosidase. Data are expressed as the mean ± S.E.M of two experiments carried out in triplicates after subtraction of the negative control values (w/o peptide) from the test values. Control panels display the kinetics obtained without peptide (negative control) and with 10 µM dermaseptin B2 (Drs B2, positive control). For E. coli ML-35p, the extracellular release of β-galactosidase was also measured as the production of o-nitrophenol at 405 nm after incubation (60 min) of E. coli cells with PLS-S2 (30 and 100 µM) and PLS-S4 (25 and 100 µM), removing of bacteria by centrifugation and adding ONPG to the supernatant. The negative (w/o peptide) and positive (10 µM Drs B2) controls are indicated for comparison. Results are expressed as the mean ± S.E.M of one representative experiment performed in triplicates."}, "A. baumannii ATCC 19606": {"system": "A. baumannii ATCC 19606", "settings": "LB medium (pH 7), absorbance at 630 nm; average of three independent experiments in triplicates", "protocol": "(§4) The effect of phylloseptins-S was evaluated against several bacterial strains and yeasts (Table 2). Bacteria were cultured in Luria-Bertani broth (LB), whereas yeasts were cultured in Yeast Peptone Dextrose medium (YPD), and minimal inhibitory concentrations (MICs) were determined by measuring the absorbance at 630 nm in 96-well microtitration plates, as described previously. Leishmanicidal activity of phylloseptins-S was also examined against promastigotes of different Leishmania species: Leishmania infantum (strain MHOM/MA/67/ITMAP-263), L. major (MHOM/SU/73/5-ASKH) and L. braziliensis (MHOM/BR/75/M2904). Culture of promastigotes and determination of the growth inhibition were performed as previously described, [22], [23].\n(§5) The antimicrobial activity of synthetic PLS-S1 to -S5 was assayed in LB medium (pH 7) against several Gram-negative and Gram-positive bacteria, and multi-drug resistant S. aureus strains. […] The antiparasitic activity of PLSs was also determined against three Leishmania species (L. infantum, L. major, and L. braziliensis). […] Because PLS-S3 contains histidines as basic residues and that approximately only 11% of these residues are positively charged at pH 7, we have evaluated the antibacterial activity at pH 5 at which His residues are predominantly positively charged (∼91%)."}, "S. aureus ST1065 [2]": {"system": "S. aureus ST1065", "settings": "LB medium (pH 7), absorbance at 630 nm; average of three independent experiments in triplicates", "protocol": "as §4, §5"}, "P. aeruginosa ATCC 27853": {"system": "P. aeruginosa ATCC 27853", "settings": "LB medium (pH 7), absorbance at 630 nm; average of three independent experiments in triplicates", "protocol": "as §4, §5"}, "E. coli ATCC 25922": {"system": "E. coli ATCC 25922", "settings": "for MIC: ATCC 25922, pH 7", "protocol": "as §4, §5"}, "S. aureus ATCC 43300": {"system": "S. aureus ATCC 43300", "settings": "strain resistant to methicillin and oxacillin; LB medium (pH 7), absorbance at 630 nm; average of three independent experiments in triplicates", "protocol": "as §4, §5"}, "E. faecalis ATCC 29212": {"system": "E. faecalis ATCC 29212", "settings": "LB medium (pH 7), absorbance at 630 nm; average of three independent experiments in triplicates", "protocol": "as §4, §5"}, "K. pneumoniae ATCC 13883": {"system": "K. pneumoniae ATCC 13883", "settings": "LB medium (pH 7), absorbance at 630 nm; average of three independent experiments in triplicates", "protocol": "as §4, §5"}, "S. aureus ATCC 25923": {"system": "S. aureus ATCC 25923", "settings": "LB medium (pH 7), absorbance at 630 nm, 96-well plates; average of three independent experiments in triplicates", "protocol": "as §4, §5"}, "E. coli ML-35p [3]": {"system": "E. coli ML-35p", "settings": "LB medium (pH 7), absorbance at 630 nm; average of three independent experiments in triplicates", "protocol": "as §4, §5"}, "S. pyogenes ATCC 19615": {"system": "S. pyogenes ATCC 19615", "settings": "LB medium (pH 7), absorbance at 630 nm; average of three independent experiments in triplicates", "protocol": "as §4, §5"}, "S. aureus ATCC BAA-44": {"system": "S. aureus ATCC BAA-44", "settings": "multidrug resistant strain; LB medium (pH 7), absorbance at 630 nm; average of three independent experiments in triplicates", "protocol": "as §4, §5"}, "E. coli ML-35p [4]": {"system": "E. coli ML-35p", "experiment": "Extracellular release of β-galactosidase", "format": "cell-based", "settings": "60 min incubation; PLS-S2 30 and 100 µM, PLS-S4 25 and 100 µM, dermaseptin B2 10 µM; ONPG added to supernatant", "protocol": "as §2\nFigure 5 Kinetics of the cytoplasmic membrane leakage of E. coli ML-35p and S. aureus ST1065 after incubation with different concentrations of active phylloseptins-S. The membrane leakage was determined by measuring the production of o-nitrophenol at 405 nm following hydrolysis of ONPG by the cytoplasmic bacterial β-galactosidase. […] Results are expressed as the mean ± S.E.M of one representative experiment performed in triplicates."}, "E. coli ML-35p [5]": {"system": "E. coli ML-35p", "experiment": "Permeabilization of the cytoplasmic membrane (ONPG hydrolysis)", "format": "cell-based", "settings": "ONP production at 405 nm from ONPG; compared with 10 µM dermaseptin B2 as positive control", "protocol": "as §1, §2, §3"}, "E. coli ML-35p [6]": {"system": "E. coli ML-35p", "experiment": "Time-kill assay", "format": "cell-based", "settings": "MIC (25 µM) and two-fold above the MIC, in PBS; two experiments in triplicates", "protocol": "The time-kill kinetics of phylloseptins-S against the Gram-negative bacteria E. coli ML-35p and the Gram-positive strain S. aureus ST1065 were evaluated as previously described with a dose of peptide corresponding to the MIC and two-fold above the MIC. Two experiments were realized in triplicates.\nFigure 4 Time-kill curves of PLS-S1 (S1), -S2 (S2), and -S4 (S4). […] Controls correspond to bacteria incubated in PBS without peptide. The data are the means ± S.E.M. of two experiments carried out in triplicates."}}, "note": "Ends that are not written are not given here.", "data": [{"substance": "FLSLIPHIVSGVASIAKHF-NH2 [PLS-S1]", "values": [{"measurement": "permeabilization of the cytoplasmic membrane (in words)", "setting": "S. aureus ST1065 [1]", "result": "as efficient as with dermaseptin-B2"}, {"measurement": "MIC", "setting": "A. baumannii ATCC 19606", "result": 6.25, "unit": "µM"}, {"measurement": "MIC", "setting": "S. aureus ST1065 [2]", "result": 6.25, "unit": "µM"}, {"measurement": "MIC", "setting": "P. aeruginosa ATCC 27853", "result": ">100", "unit": "µM"}, {"measurement": "MIC at pH 5", "setting": "E. coli ATCC 25922; ATCC 25922, pH 5", "result": 12.5, "unit": "µM"}, {"measurement": "MIC", "setting": "E. coli ATCC 25922", "result": 70, "unit": "µM"}, {"measurement": "MIC", "setting": "S. aureus ATCC 43300", "result": 6.25, "unit": "µM"}, {"measurement": "MIC", "setting": "E. faecalis ATCC 29212", "result": 25, "unit": "µM"}, {"measurement": "MIC", "setting": "K. pneumoniae ATCC 13883", "result": ">100", "unit": "µM"}, {"measurement": "MIC", "setting": "S. aureus ATCC 25923", "result": 6.25, "unit": "µM"}, {"measurement": "MIC", "setting": "E. coli ML-35p [3]", "result": ">100", "unit": "µM"}, {"measurement": "MIC", "setting": "S. pyogenes ATCC 19615", "result": 3.12, "unit": "µM"}, {"measurement": "MIC", "setting": "S. aureus ATCC BAA-44", "result": 6.25, "unit": "µM"}]}, {"substance": "FLSLIPHIVSGVASLAKHF-NH2 [PLS-S2]", "values": [{"measurement": "extracellular release of β-galactosidase (in words)", "setting": "E. coli ML-35p [4]", "result": "dose-dependent release of β-galactosidase"}, {"measurement": "permeabilization of the cytoplasmic membrane (in words)", "setting": "S. aureus ST1065 [1]", "result": "as efficient as with dermaseptin-B2"}, {"measurement": "permeabilization of the cytoplasmic membrane (in words)", "setting": "E. coli ML-35p [5]", "result": "lower efficiency"}, {"measurement": "MIC", "setting": "A. baumannii ATCC 19606", "result": 6.25, "unit": "µM"}, {"measurement": "MIC", "setting": "S. aureus ST1065 [2]", "result": 6.25, "unit": "µM"}, {"measurement": "MIC", "setting": "P. aeruginosa ATCC 27853", "result": 200, "unit": "µM"}, {"measurement": "MIC", "setting": "E. coli ATCC 25922", "result": 25, "unit": "µM"}, {"measurement": "MIC", "setting": "S. aureus ATCC 43300", "result": 6.25, "unit": "µM"}, {"measurement": "MIC", "setting": "E. faecalis ATCC 29212", "result": 25, "unit": "µM"}, {"measurement": "MIC", "setting": "K. pneumoniae ATCC 13883", "result": 25, "unit": "µM"}, {"measurement": "MIC", "setting": "S. aureus ATCC 25923", "result": 6.25, "unit": "µM"}, {"measurement": "MIC", "setting": "E. coli ML-35p [3]", "result": 30, "unit": "µM"}, {"measurement": "MIC", "setting": "S. pyogenes ATCC 19615", "result": 1.56, "unit": "µM"}, {"measurement": "MIC", "setting": "S. aureus ATCC BAA-44", "result": 6.25, "unit": "µM"}, {"measurement": "killing kinetics (in words)", "setting": "E. coli ML-35p [6]", "result": "Almost similar rapid killing kinetics"}]}, {"substance": "FLSMIPHIVSGVAALAKHL-NH2 [PLS-S4]", "values": [{"measurement": "extracellular release of β-galactosidase (in words)", "setting": "E. coli ML-35p [4]", "result": "dose-dependent release of β-galactosidase"}, {"measurement": "permeabilization of the cytoplasmic membrane (in words)", "setting": "S. aureus ST1065 [1]", "result": "as efficient as with dermaseptin-B2"}, {"measurement": "permeabilization of the cytoplasmic membrane (in words)", "setting": "E. coli ML-35p [5]", "result": "as efficient as with dermaseptin-B2"}, {"measurement": "MIC", "setting": "A. baumannii ATCC 19606", "result": 6.25, "unit": "µM"}, {"measurement": "MIC", "setting": "S. aureus ST1065 [2]", "result": 6.25, "unit": "µM"}, {"measurement": "MIC", "setting": "P. aeruginosa ATCC 27853", "result": 100, "unit": "µM"}, {"measurement": "MIC", "setting": "E. coli ATCC 25922", "result": 25, "unit": "µM"}, {"measurement": "MIC", "setting": "S. aureus ATCC 43300", "result": 6.25, "unit": "µM"}, {"measurement": "MIC", "setting": "E. faecalis ATCC 29212", "result": 50, "unit": "µM"}, {"measurement": "MIC", "setting": "K. pneumoniae ATCC 13883", "result": 25, "unit": "µM"}, {"measurement": "MIC", "setting": "S. aureus ATCC 25923", "result": 6.25, "unit": "µM"}, {"measurement": "MIC", "setting": "E. coli ML-35p [3]", "result": 25, "unit": "µM"}, {"measurement": "MIC", "setting": "S. pyogenes ATCC 19615", "result": 3.12, "unit": "µM"}, {"measurement": "MIC", "setting": "S. aureus ATCC BAA-44", "result": 6.25, "unit": "µM"}, {"measurement": "killing kinetics (in words)", "setting": "E. coli ML-35p [6]", "result": "Almost similar rapid killing kinetics"}]}]}
